Assay results taken from patent US11161860B2, “Compound having effects of inhibiting phosphodiesterase 4, preparation method thereof and pharmaceutical use thereof” (Hefei Industrial Pharmaceutical Institute Co., Ltd., priority 2018, dated 2021).
Marks after values point to notes of the source that are not given here.

How the values were obtained:
[1] = biological target: T1, PDE4A enzyme (Homo sapiens, UniProt P27815); experiment: Inhibition of the activity of PDE4A enzyme (fluorescence polarization, Transcreener AMP2/GMP2); type: biochemical; conditions: 1 h, mean ± spread; for remaining activity at 0.01 µM: 0.01 μM compound; for remaining activity at 0.1 µM: 0.1 μM compound; for remaining activity at 1 µM: 1 μM compound
T1 construct: GST (N); host or cells: Sf9 insect cells (baculovirus)
Protocol: The PDE4A enzyme expressed from baculovirus is labeled with N-terminal GST from Sf9 insect cells. A specified PDE4A enzyme and 1 mM cAMP are added to the newly prepared pH 7.5 Tris buffer, the enzyme solution is transferred into reaction wells, and the compound is sonicated in DMSO and then added to the enzyme solution for culturing for 10 minutes at room temperature; the substrate solution is poured into the reaction wells to initiate the reaction and cultured at room temperature for 1 hour, and a detection tracer (AMP2/GMP2 AlexaFluor 633 Tracer) and an antibody (Transcreener® AMP2/GMP2 Antibody) are added to stop the reaction for culturing for 90 minutes with gentle mixing. […]

[2] = test system: DNCB-induced atopic dermatitis mice; experiment: DNCB-induced dermatitis mouse model, skin thickness; type: in vivo, female BALB/C mice; conditions: for reduction of the thickness of the dermis compared with Crisaborole / reduction of the thickness of the epidermis compared with Crisaborole / reduction of the thickness of the dermis compared with the compound Y5 / reduction of the thickness of the epidermis compared with the compound Y5: 50 mg/mL topical; for reduction of the thickness of the dermis compared with Crisaborole / reduction of the thickness of the epidermis compared with Crisaborole: statistical comparison vs Crisaborole group; for reduction of the thickness of the dermis compared with the compound Y5 / reduction of the thickness of the epidermis compared with the compound Y5: statistical comparison vs Y5 group; for Epidermal thickness / Dermis thickness: 50 mg/mL, 100 μL applied to back skin, 11 times once a day, Mean ± SD, n = 8; for Epidermal thickness: model 137.76, blank 48.93; for Dermis thickness: model 500.71, blank 194.70
Protocol: After female BALB/C mice are selected, each weighing 18-22 g, for animal adaptive breeding for 7 days, these are randomly divided into a blank group, a model group, a positive drug Crisaborole group, a hexadecadrol group, and compound groups, with 8 in each group. Except for the mice in the blank group, the remaining mice are applied with 100 μL of a 1% DNCB solution [acetone: olive oil=4:1 (V/V)] on the skin of the back of the shaved mice, and applied continuously for 3 days once a day. Then, dosing treatment starts 4 days after the mice are housed, and the test drug is applied to the back of each group of animals, wherein animals in the blank group and the model group are applied with a corresponding solvent, the positive drug Crisaborole group and hexadecadrol group are applied with 50 mg/mL of a corresponding drug, and the administration group is applied with 50 mg/mL of a corresponding compound, with 100 μL for each mouse; after application of 4 hours, 0.5% DNCB solution is applied for secondary challenge, and repeated administration and challenge treatment are performed 11 times, once a day. 24 hours after the last administration, the animals are sacrificed, and the back skins (1×0.4 cm^2) are taken and fixed in 10% formalin buffer to make pathological sections and perform HE staining; then, the epidermal and dermal layers are observed under a 100× […], and 5 areas are selected for detection of and recording the skin thickness, and then the average value is taken to represent the final thicknesses of the epidermal layer and dermal layer, respectively.

T1 sequence (P27815 whole entry, species assumed): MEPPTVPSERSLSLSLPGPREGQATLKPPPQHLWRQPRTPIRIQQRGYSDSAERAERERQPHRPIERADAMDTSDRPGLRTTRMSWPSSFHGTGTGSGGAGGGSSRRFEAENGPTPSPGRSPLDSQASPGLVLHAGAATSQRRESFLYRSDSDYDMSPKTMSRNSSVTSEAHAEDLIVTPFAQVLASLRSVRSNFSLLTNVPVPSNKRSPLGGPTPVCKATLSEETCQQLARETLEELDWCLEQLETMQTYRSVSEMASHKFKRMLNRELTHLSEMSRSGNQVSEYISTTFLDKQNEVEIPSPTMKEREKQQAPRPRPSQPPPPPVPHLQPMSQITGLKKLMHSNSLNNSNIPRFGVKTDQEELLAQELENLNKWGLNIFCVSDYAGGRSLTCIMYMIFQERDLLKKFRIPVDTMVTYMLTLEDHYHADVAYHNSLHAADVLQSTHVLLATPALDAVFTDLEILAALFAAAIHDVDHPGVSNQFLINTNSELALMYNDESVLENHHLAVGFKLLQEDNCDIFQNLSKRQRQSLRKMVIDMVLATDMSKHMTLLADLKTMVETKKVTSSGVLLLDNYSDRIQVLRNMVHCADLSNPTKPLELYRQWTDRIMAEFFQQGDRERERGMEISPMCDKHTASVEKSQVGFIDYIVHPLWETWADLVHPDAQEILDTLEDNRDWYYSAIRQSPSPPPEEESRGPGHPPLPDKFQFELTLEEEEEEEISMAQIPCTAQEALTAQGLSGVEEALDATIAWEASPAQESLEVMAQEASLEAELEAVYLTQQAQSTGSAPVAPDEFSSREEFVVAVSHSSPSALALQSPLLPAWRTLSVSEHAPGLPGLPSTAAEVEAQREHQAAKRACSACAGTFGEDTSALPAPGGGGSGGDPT

`OB1OCc2cc(Oc3ccc4cc(C(F)(F)F)ccc4n3)ccc21` [PD-6] showed a remaining activity at 0.01 µM [1] of 0.9 ± 0.23%, a remaining activity at 0.1 µM [1] of 0.6 ± 0.1% and a remaining activity at 1 µM [1] of 0.32 ± 0.13%. The “reduction of the thickness of the dermis compared with Crisaborole” value [2] was “significantly reduce the thickness of the dermis of dermatitis mice (P≤0.01)”, the “reduction of the thickness of the epidermis compared with Crisaborole” value [2] was “significantly reduce the thickness of the epidermis (P≤0.01)” and the “reduction of the thickness of the dermis compared with the compound Y5” value [2] was “significantly reduce the thickness of the dermis of dermatitis mice (P≤0.01)”. For the same compound, the “reduction of the thickness of the epidermis compared with the compound Y5” value [2] was “significantly reduce the thickness of the epidermis (P≤0.01)”, the Epidermal thickness [2] was 70.87 ± 14.43 ^aa μm and the Dermis thickness [2] was 380.15 ± 22.54 ^a a μm.
`OB1OCc2cc(Oc3ccc4c(C(F)(F)F)cccc4n3)ccc21` [PD-7] was tested, and the remaining activity at 0.01 µM [1] was 6.41 ± 0.32%, the remaining activity at 0.1 µM [1] was 1.83 ± 0.41% and the remaining activity at 1 µM [1] was 1.12 ± 0.99%. For the same compound, the “reduction of the thickness of the dermis compared with Crisaborole” value [2] was “significantly reduce the thickness of the dermis of dermatitis mice (P≤0.01)”, the “reduction of the thickness of the epidermis compared with Crisaborole” value [2] was “significantly reduce the thickness of the epidermis (P≤0.01)” and the “reduction of the thickness of the dermis compared with the compound Y5” value [2] was “significantly reduce the thickness of the dermis of dermatitis mice (P≤0.01)”. The “reduction of the thickness of the epidermis compared with the compound Y5” value [2] was “significantly reduce the thickness of the epidermis (P≤0.01)”, the Epidermal thickness [2] was 68.21 ± 7.66 aa μm and the Dermis thickness [2] was 370.11 ± 24.60 a a μm.
With `OB1OCc2cc(Oc3ccc4c(C(F)(F)F)cc(Cl)cc4n3)ccc21` [PD-8] the remaining activity at 0.01 µM [1] was 4.36 ± 0.59%, the remaining activity at 0.1 µM [1] was 2.25 ± 1.19% and the remaining activity at 1 µM [1] was 1.21 ± 0.17%. For the same compound, the “reduction of the thickness of the dermis compared with Crisaborole” value [2] was “significantly reduce the thickness of the dermis of dermatitis mice (P≤0.01)”, the “reduction of the thickness of the epidermis compared with Crisaborole” value [2] was “significantly reduce the thickness of the epidermis (P≤0.01)” and the “reduction of the thickness of the dermis compared with the compound Y5” value [2] was “significantly reduce the thickness of the dermis of dermatitis mice (P≤0.05)”. The “reduction of the thickness of the epidermis compared with the compound Y5” value [2] was “significantly reduce the thickness of the epidermis (P≤0.01)”, the Epidermal thickness [2] was 76.58 ± 8.79**^##aa μm and the Dermis thickness [2] was 385.17 ± 28.85 ^a μm.
Work on `N#Cc1ccc2nc(Oc3ccc4c(c3)COB4O)cc(C(F)(F)F)c2c1` [PD-9] yielded a remaining activity at 0.01 µM [1] of 3.41 ± 0.45%, a remaining activity at 0.1 µM [1] of 1.92 ± 0.39% and a remaining activity at 1 µM [1] of 0.99 ± 0.85%. The “reduction of the thickness of the dermis compared with Crisaborole” value [2] was “significantly reduce the thickness of the dermis of dermatitis mice (P≤0.05)”, the “reduction of the thickness of the epidermis compared with Crisaborole” value [2] was “significantly reduce the thickness of the epidermis of the dermatitis mice (P≤0.05)” and the Epidermal thickness [2] was 97.25 ± 10.43 μm. The Dermis thickness [2] was 413.25 ± 31.50 μm.
`COC(=O)c1ccc2nc(Oc3ccc4c(c3)COB4O)ccc2c1` [PD-10] gave a remaining activity at 0.01 µM [1] of 10.8 ± 1.6%, a remaining activity at 0.1 µM [1] of 2.45 ± 0.32% and a remaining activity at 1 µM [1] of 1.55 ± 0.67%. The “reduction of the thickness of the dermis compared with Crisaborole” value [2] was “significantly reduce the thickness of the dermis of dermatitis mice (P≤0.01)”, the “reduction of the thickness of the epidermis compared with Crisaborole” value [2] was “significantly reduce the thickness of the epidermis (P≤0.01)” and the Epidermal thickness [2] was 92.17 ± 9.94 μm. The Dermis thickness [2] was 406.74 ± 29.54 μm.
`NC(=O)c1cccc2nc(Oc3ccc4c(c3)COB4O)ccc12` [PD-11] showed a remaining activity at 0.01 µM [1] of 10.1 ± 1.93%, a remaining activity at 0.1 µM [1] of 5.85 ± 0.72% and a remaining activity at 1 µM [1] of 1.7 ± 0.43%. The Epidermal thickness [2] was 95.37 ± 8.75 μm and the Dermis thickness [2] was 443.17 ± 33.40 μm.
`CC(=O)c1cccc2nc(Oc3ccc4c(c3)COB4O)ccc12` [PD-12] showed a remaining activity at 0.01 µM [1] of 22.1 ± 0.57%, a remaining activity at 0.1 µM [1] of 6.2 ± 1.23% and a remaining activity at 1 µM [1] of 3.46 ± 1.12%. The “reduction of the thickness of the dermis compared with Crisaborole” value [2] was “significantly reduce the thickness of the dermis of dermatitis mice (P≤0.01)”, the “reduction of the thickness of the epidermis compared with Crisaborole” value [2] was “significantly reduce the thickness of the epidermis (P≤0.01)” and the “reduction of the thickness of the dermis compared with the compound Y5” value [2] was “significantly reduce the thickness of the dermis of dermatitis mice (P≤0.01)”. The “reduction of the thickness of the epidermis compared with the compound Y5” value [2] was “significantly reduce the thickness of the epidermis (P≤0.01)”, the Epidermal thickness [2] was 72.15 ± 8.57 aa μm and the Dermis thickness [2] was 362.44 ± 25.78 ^a a μm.
With `NC(=O)c1ccc2nc(Oc3ccc4c(c3)COB4O)ccc2c1` [PD-13] the remaining activity at 0.01 µM [1] was 21.7 ± 1.51%, the remaining activity at 0.1 µM [1] was 8.68 ± 0.89% and the remaining activity at 1 µM [1] was 1.44 ± 0.4%. For the same compound, the Epidermal thickness [2] was 100.23 ± 11.62 μm and the Dermis thickness [2] was 450.26 ± 25.55 μm.
With `CC(=O)c1ccc2nc(Oc3ccc4c(c3)COB4O)ccc2c1` [PD-14] the remaining activity at 0.01 µM [1] was 3.57 ± 1.08%, the remaining activity at 0.1 µM [1] was 1.26 ± 1.17% and the remaining activity at 1 µM [1] was 0.15 ± 0.1%. The “reduction of the thickness of the dermis compared with Crisaborole” value [2] was “significantly reduce the thickness of the dermis of dermatitis mice (P≤0.01)”, the “reduction of the thickness of the epidermis compared with Crisaborole” value [2] was “significantly reduce the thickness of the epidermis (P≤0.01)” and the “reduction of the thickness of the dermis compared with the compound Y5” value [2] was “significantly reduce the thickness of the dermis of dermatitis mice (P≤0.01)”. For the same compound, the “reduction of the thickness of the epidermis compared with the compound Y5” value [2] was “significantly reduce the thickness of the epidermis (P≤0.01)”, the Epidermal thickness [2] was 75.24 ± 7.98 aa μm and the Dermis thickness [2] was 365.40 ± 21.95 ^a a μm.
`OB1OCc2cc(Oc3ccc4cc(C(F)(F)F)c(Cl)cc4n3)ccc21` [PD-15] was tested, and the remaining activity at 0.01 µM [1] was 2.09 ± 0.99%, the remaining activity at 0.1 µM [1] was 0.54 ± 0.5% and the remaining activity at 1 µM [1] was 1.08 ± 0.4%. The “reduction of the thickness of the dermis compared with Crisaborole” value [2] was “significantly reduce the thickness of the dermis of dermatitis mice (P≤0.01)”, the “reduction of the thickness of the epidermis compared with Crisaborole” value [2] was “significantly reduce the thickness of the epidermis (P≤0.01)” and the “reduction of the thickness of the dermis compared with the compound Y5” value [2] was “significantly reduce the thickness of the dermis of dermatitis mice (P≤0.01)”. For the same compound, the “reduction of the thickness of the epidermis compared with the compound Y5” value [2] was “significantly reduce the thickness of the epidermis (P≤0.01)”, the Epidermal thickness [2] was 74.28 ± 8.26**^##aa μm and the Dermis thickness [2] was 376.62 ± 23.73 ^a a μm.
`N#Cc1cc2ccc(Oc3ccc4c(c3)COB4O)nc2cc1Cl` [PD-16] gave a remaining activity at 0.01 µM [1] of 1.05 ± 1.26%, a remaining activity at 0.1 µM [1] of 0.45 ± 0.3% and a remaining activity at 1 µM [1] of 0.21 ± 0.57%. The “reduction of the thickness of the dermis compared with Crisaborole” value [2] was “significantly reduce the thickness of the dermis of dermatitis mice (P≤0.01)”, the “reduction of the thickness of the epidermis compared with Crisaborole” value [2] was “significantly reduce the thickness of the epidermis (P≤0.01)” and the “reduction of the thickness of the dermis compared with the compound Y5” value [2] was “significantly reduce the thickness of the dermis of dermatitis mice (P≤0.05)”. For the same compound, the “reduction of the thickness of the epidermis compared with the compound Y5” value [2] was “significantly reduce the thickness of the epidermis (P<0.05)”, the Epidermal thickness [2] was 78.64 ± 9.75 a μm and the Dermis thickness [2] was 388.46 ± 24.06 a μm.
`OB1OCc2cc(Oc3cc(C(F)(F)F)c4cc(C(F)(F)F)ccc4n3)ccc21` [PD-17] was tested, and the remaining activity at 0.01 µM [1] was 4.17 ± 0.99%, the remaining activity at 0.1 µM [1] was 1.89 ± 0.6% and the remaining activity at 1 µM [1] was 0.77 ± 0.39%. For the same compound, the “reduction of the thickness of the dermis compared with Crisaborole” value [2] was “significantly reduce the thickness of the dermis of dermatitis mice (P≤0.01)”, the “reduction of the thickness of the epidermis compared with Crisaborole” value [2] was “significantly reduce the thickness of the epidermis (P≤0.01)” and the “reduction of the thickness of the dermis compared with the compound Y5” value [2] was “significantly reduce the thickness of the dermis of dermatitis mice (P≤0.01)”. For the same compound, the Epidermal thickness [2] was 80.76 ± 10.51 μm and the Dermis thickness [2] was 380.74 ± 20.15 ^a a μm.
Work on `COC(=O)c1ccc2nc(Oc3ccc4c(c3)COB4O)cc(C(F)(F)F)c2c1` [PD-18] yielded a remaining activity at 0.01 µM [1] of 1.52 ± 0.44%, a remaining activity at 0.1 µM [1] of 0.46 ± 0.35% and a remaining activity at 1 µM [1] of 0.13 ± 0.06%. The Epidermal thickness [2] was 90.35 ± 11.20 μm and the Dermis thickness [2] was 436.16 ± 35.42 μm.
`CC(=O)c1ccc2nc(Oc3ccc4c(c3)COB4O)cc(C(F)(F)F)c2c1` [PD-19] gave a remaining activity at 0.01 µM [1] of 4.22 ± 0.86%, a remaining activity at 0.1 µM [1] of 1.56 ± 0.48% and a remaining activity at 1 µM [1] of 0.54 ± 0.47%. For the same compound, the Epidermal thickness [2] was 96.05 ± 9.75 μm and the Dermis thickness [2] was 441.12 ± 30.17 μm.
With `COC(=O)c1ccc2nc(Oc3ccc4c(c3)COB4O)cc(F)c2c1` [PD-20] the remaining activity at 0.01 µM [1] was 6.13 ± 0.93%, the remaining activity at 0.1 µM [1] was 3.64 ± 0.48% and the remaining activity at 1 µM [1] was 1.78 ± 0.5%. The Epidermal thickness [2] was 98.74 ± 10.55 μm and the Dermis thickness [2] was 438.14 ± 29.71 μm.
